Measurements published in patent US10590086B2, “Pharmaceutical compound” (IOmet Pharma Ltd., priority 2014, dated 2020).

Experiments:
TDO = TDO (Homo sapiens, UniProt P48775); experiment: A172 kynurenine cell-based assay; set-up: This assay utilised cancer cells which expressed either TDO or IDO; endogenous in cells; host or cells: A172 (human glioblastoma); settings: A172 human glioblastoma cells, 48 hours, 500 μM L-tryptophan; read-out: A172 Kynurenine cell based assay pIC50 (converted)
Method: (§1) Exemplary compounds of the invention were prepared, and tested to determine their effect as TDO and/or IDO inhibitors. Two different assays were employed: 1. a cell-based assay for detecting the effect of test compounds on kynurenine production in two different cancer cell types. This assay utilised cancer cells which expressed either TDO or IDO and as such was used as a means of testing compound activity at these two enzymes in a cell-based context. 2. a TDO and IDO biochemical coupled assay which utilised recombinantly produced and purified TDO and IDO enzymes in combination with the enzyme formamidase. This coupled enzyme system allowed conversion of N-formylkynurenine produced by TDO or IDO activity to kynurenine which was then quantified by fluorescence following addition of Erhlich's Reagent The protocols for these are set out below.
(§2) Cell Based Assay for Detection of Kynurenine Produced by TDO and/or IDO
(§3) A172 (human glioblastoma) and SKOV3 (human ovarian adenocarcinoma) cells were seeded in a 96 well plate at 30,000 or 40,000 cells per well respectively in phenol red-free RPMI supplemented with 10% FCS, 2 mM L-glutamine and 500 μM L-tryptophan. IDO expression was induced in the SKOV3 cells by the addition of 500 ng/ml IFN-γ. Cells were incubated at 37° C. with or without the addition of test compound. After 48 hours, the cells were removed by centrifugation and Erhlich's reagent was added to the supernatant. The Erhlich's reagent was incubated for 5 minutes before the absorbance was read at 490 nm.

IDO = IDO (Homo sapiens, UniProt P14902); experiment: SKOV3 kynurenine cell-based assay (IDO induced by IFN-γ); set-up: IDO expression was induced in the SKOV3 cells by the addition of 500 ng/ml IFN-γ; endogenous in cells; host or cells: SKOV3 (human ovarian adenocarcinoma), induced with IFN-γ; settings: SKOV3 human ovarian adenocarcinoma cells, 500 ng/ml IFN-γ, 48 hours, 500 μM L-tryptophan; read-out: SKOV3 Kynurenine cell based assay pIC50 (converted)
Sequence of IDO (P14902 whole entry): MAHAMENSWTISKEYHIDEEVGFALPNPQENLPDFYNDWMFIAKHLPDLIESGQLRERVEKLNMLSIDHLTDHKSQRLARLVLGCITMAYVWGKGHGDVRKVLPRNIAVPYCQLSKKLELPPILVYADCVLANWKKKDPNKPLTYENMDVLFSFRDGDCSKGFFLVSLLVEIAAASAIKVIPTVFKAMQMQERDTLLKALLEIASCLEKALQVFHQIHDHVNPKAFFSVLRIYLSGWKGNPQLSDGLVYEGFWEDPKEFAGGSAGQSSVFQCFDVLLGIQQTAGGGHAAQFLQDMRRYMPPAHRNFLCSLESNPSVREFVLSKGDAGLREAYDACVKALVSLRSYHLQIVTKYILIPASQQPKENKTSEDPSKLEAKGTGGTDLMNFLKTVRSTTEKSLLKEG
Method: as §1, §2, §3

Sequence of TDO (P48775 whole entry): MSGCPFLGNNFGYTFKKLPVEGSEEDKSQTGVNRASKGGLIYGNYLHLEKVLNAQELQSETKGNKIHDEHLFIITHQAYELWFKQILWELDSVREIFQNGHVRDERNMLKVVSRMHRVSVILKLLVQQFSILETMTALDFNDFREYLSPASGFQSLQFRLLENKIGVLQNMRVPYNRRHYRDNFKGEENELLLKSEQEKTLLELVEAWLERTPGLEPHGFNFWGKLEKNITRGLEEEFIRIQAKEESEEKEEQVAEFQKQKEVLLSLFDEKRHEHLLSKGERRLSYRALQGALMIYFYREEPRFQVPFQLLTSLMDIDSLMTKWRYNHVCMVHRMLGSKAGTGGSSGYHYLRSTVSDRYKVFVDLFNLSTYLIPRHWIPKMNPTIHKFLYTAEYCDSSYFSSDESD

SMILES | IC50 (TDO) | IC50 (IDO)
CC(=O)Nc1cccc2[nH]ncc12 [Compound 6] | 32.4 to 100 µM | > 100 µM
O=S(=O)(Cc1ccccc1)N1CCN(c2cccc3[nH]ncc23)CC1 [Compound 13] | 3.24 to 31.6 µM | 32.4 to 100 µM
CCCS(=O)(=O)N1CCN(c2cccc3[nH]ncc23)CC1 [Compound 16] | 3.24 to 31.6 µM | 32.4 to 100 µM
O=S(=O)(CC(F)(F)F)N1CCN(c2cccc3[nH]ncc23)CC1 [Compound 18] | 32.4 to 100 µM | > 100 µM
NS(=O)(=O)N1CCN(c2cccc3[nH]ncc23)CC1 [Compound 20] | 3.24 to 31.6 µM | 3.24 to 31.6 µM
COCCS(=O)(=O)N1CCN(c2cccc3[nH]ncc23)CC1 [Compound 23] | > 100 µM | 32.4 to 100 µM
CNS(=O)(=O)N1CCN(c2cccc3[nH]ncc23)CC1 [Compound 24] | 3.24 to 31.6 µM | 32.4 to 100 µM
CC(=O)N1CCN(c2cccc3[nH]ncc23)CC1C (stereo not shown) [Compound 27] | 3.24 to 31.6 µM | 32.4 to 100 µM
CC1CN(c2cccc3[nH]ncc23)CCN1S(C)(=O)=O (stereo not shown) [Compound 29] | 3.24 to 31.6 µM | 32.4 to 100 µM
Cc1cc(N2CCN(S(C)(=O)=O)CC2)c2cn[nH]c2c1 [Compound 31] | < 3.16 µM | 32.4 to 100 µM
CS(=O)(=O)N1CCC(c2cc(-c3ccccc3)cc3[nH]ncc23)CC1 [Compound 32] | 3.24 to 31.6 µM | 32.4 to 100 µM
CS(=O)(=O)N1CCN(c2cc(-c3ccccc3)cc3[nH]ncc23)CC1 [Compound 33] | 3.24 to 31.6 µM | 32.4 to 100 µM
Cc1ccc(C2CCN(S(C)(=O)=O)CC2)c2cn[nH]c12 [Compound 39] | > 100 µM | 32.4 to 100 µM
CS(=O)(=O)N1CCC(c2ccc(Cl)c3[nH]ncc23)CC1 [Compound 42] | 32.4 to 100 µM | 3.24 to 31.6 µM
CS(=O)(=O)N1CCN(c2ccc3[nH]ncc3c2)CC1 [Compound 43] | 3.24 to 31.6 µM | 32.4 to 100 µM
CC(=O)N1CCN(c2cc(Cl)cc3[nH]ncc23)CC1(C)C [Compound 46] | < 3.16 µM | < 3.16 µM

SMILES | IC50 (TDO) | IC50 (IDO)
CN1CC2CN(c3cccc4[nH]ncc34)CCN2C1=O (stereo not shown) [Compound 47] | 3.24 to 31.6 µM | > 100 µM
CC(=O)N1CCN(c2cc(C(F)(F)F)cc3[nH]ncc23)CC1 [Compound 48] | < 3.16 µM | 3.24 to 31.6 µM
CS(=O)(=O)N1CCN(c2cc(C(F)(F)F)cc3[nH]ncc23)CC1 [Compound 49] | < 3.16 µM | 3.24 to 31.6 µM
c1ccc(CCNc2cccc3[nH]ncc23)cc1 [Compound 50] | 32.4 to 100 µM | 32.4 to 100 µM
CC(=O)N1CCN(c2cc(F)cc3[nH]ncc23)CC1 [Compound 51] | 3.24 to 31.6 µM | > 100 µM
CS(=O)(=O)N1CCC(Oc2cccc3[nH]ncc23)CC1 [Compound 52] | 3.24 to 31.6 µM | 32.4 to 100 µM
CC(=O)N1CCC(Oc2cccc3[nH]ncc23)CC1 [Compound 53] | 3.24 to 31.6 µM | < 3.16 µM
O=S(=O)(C1CC1)N1CCN(c2cc(Cl)cc3[nH]ncc23)CC1 [Compound 54] | < 3.16 µM | 3.24 to 31.6 µM
O=S(=O)(c1ccccc1)N1CCN(c2cc(Cl)cc3[nH]ncc23)CC1 [Compound 55] | < 3.16 µM | 3.24 to 31.6 µM
O=S(=O)(Cc1ccccc1)N1CCN(c2cc(Cl)cc3[nH]ncc23)CC1 [Compound 56] | < 3.16 µM | 3.24 to 31.6 µM
O=S(=O)(C1CCCC1)N1CCN(c2cc(Cl)cc3[nH]ncc23)CC1 [Compound 57] | < 3.16 µM | 3.24 to 31.6 µM
CC(=O)N1CCCN(c2cccc3[nH]ncc23)CC1 [Compound 58] | 3.24 to 31.6 µM | > 100 µM
CNC(=O)CN1CCN(c2cc(Cl)cc3[nH]ncc23)CC1 [Compound 59] | < 3.16 µM | 3.24 to 31.6 µM
CS(=O)(=O)N1CCCN(c2cccc3[nH]ncc23)CC1 [Compound 60] | 3.24 to 31.6 µM | > 100 µM
CC(C)S(=O)(=O)N1CCN(c2cc(Cl)cc3[nH]ncc23)CC1 [Compound 61] | < 3.16 µM | 3.24 to 31.6 µM
CN(CCNc1cccc2[nH]ncc12)S(C)(=O)=O [Compound 62] | 32.4 to 100 µM | > 100 µM
